Experimental data published in a melting point compilation (Tetko et al.; mined from patent text by program, amines drawn as free bases though some values may be those of a salt).

Row | SMILES | melting point [°C]
1 | CCOC(=O)C(=O)Cc1ccc(C#N)cc1[N+](=O)[O-] | 118
2 | O=C(O)c1cccc(-c2ccnc3cc(Cc4cccc(C(F)(F)F)c4)nn23)c1 | 111 to 145
3 | Cc1ccccc1NC(=O)NCc1cccc2c1C(=O)N(C1CCC(=O)NC1=O)C2=O (stereo not given) | > 260
4 | CN(Cc1ccc(NC(=O)C2=Cc3cc(-c4ccc(-n5ccnc5)cc4)ccc3OCC2)cc1)C1CCOCC1 | 194 to 195
5 | CCN(CC)c1ccc(NC(=O)c2cnn(-c3ccc(F)cc3)c2C)cc1C#N | 135 to 136
6 | CCCCCNC(=O)Nc1ccccc1C(=O)NCC1CCN(C(c2ccccc2)c2ccccc2)CC1 | 178 to 180
7 | Nc1ccc(C(=O)N2CCOCC2)cc1OCc1ccc(-c2ccccc2)c(-c2nnnn2C(c2ccccc2)(c2ccccc2)c2ccccc2)c1 | 95 to 105
8 | N#CCN1CCc2ccc3c(c21)CCO3 | 122 to 124
9 | Nc1nc(N)c2cc(S(=O)(=O)c3ccc4ccccc4c3)ccc2n1 | 300 to 302
10 | COC(=O)C(=O)CC(=O)c1ccc(Cl)cc1 | 108 to 110
11 | CNCCCN1CCc2cc(OC)c(OC)cc2CC1=O | 68 to 70
12 | N#Cc1c(N)nc2ccc(N3CCN(Cc4ccccc4)CC3)cc2c1O | 291
13 | O=[N+]([O-])c1cc2c(cc1NCC(O)CO)OCO2 (stereo not given) | 120 to 121
14 | O=c1ccc2c(-n3cncn3)nccc2[nH]1 | > 300
15 | CC(C)(C)OC(=O)NCCCCCCCBr | 48 to 49
16 | CCCNc1nc(C#N)c(C#N)nc1-c1cccc(Cl)c1 | 120 to 121
17 | Cc1ccc(S(=O)(=O)c2nsc3nc4ccccc4n23)cc1 | 231 to 234
18 | CC1=NN(C)C(=O)C1C(=O)Nc1ccccc1 (stereo not given) | 231 to 233
19 | CCOC1=NCCNC(c2ccccc2)=C1 | 89 to 93.5
20 | CN(C)S(=O)(=O)c1ccc2c(c1)C=C(C(=O)O)C(C(F)(F)F)O2 (stereo not given) | 201 to 202
21 | COc1ccc2c(c1)c(CC(=O)NN)cn2Cc1ccccc1 | 143 to 144
22 | CN(CC#Cc1cc(CN2CCOCC2)cc2c(=O)c(C(=O)NCc3ccc(Cl)cc3)cn(C)c12)CC(O)CO (stereo not given) | 140 to 142
23 | CS(=O)(=O)c1ccc(C(CC2CCCC2)C(=O)Nc2ccccn2)cc1S(C)(=O)=O (stereo not given) | 107 to 110
24 | CCOC(=O)c1ccc(C(C(N)=O)C(C)c2cc(N)ccc2N2CCCCC2)cc1 (stereo not given) | 148 to 150
25 | CCCCCCCCCCCCCCCC(=O)CSC | 38 to 40

Row | SMILES | melting point [°C]
26 | Cn1c(=O)n(-c2cc(Cl)ccc2O)c2ccc(F)cc21 | 247 to 250
27 | O=Cc1cncn1-c1ccc(F)cc1 | 131 to 133
28 | Cn1cnnc1C(c1ccc(C#N)cc1)c1cc2c3c(c1)c(-c1cccc(Cl)c1)cc(=O)n3CC2 (stereo not given) | 174
29 | COC(=O)C(C)(N)Cc1c[nH]c2ccc(Cl)cc12 (racemic) | 170
30 | CC(C)CCc1c(-c2ccc(S(C)(=O)=O)cc2)cnn(-c2cccc(Cl)c2)c1=O | 60 to 65
31 | O=C(O)c1ncccc1CCc1cccc(F)c1 | 118 to 122
32 | CCOC(=O)c1ncn2c1CN(C)C(=O)c1c(F)cccc1-2 | 196 to 198
33 | Cc1ccc(S(=O)(=O)N2[C@@H](C(N)=O)CC[C@H]2c2ccc(F)cc2)cc1 (racemic) | 137
34 | COc1ccc(-c2nc(CCCCCCc3nnn[nH]3)oc2-c2ccc(OC)cc2)cc1 | 124
35 | O=Cc1cccc2cc3c(cc12)sc1ccccc13 | 199 to 200
36 | CN(C)C(=O)c1cc(O)c2nc(C(F)(F)F)n(C)c2c1 | 243 to 244
37 | CCc1nc(C)c(/C=C(\NC(=O)c2ccc(C(=O)NCc3cccc(O)c3)cc2Cl)C(=O)O)s1 | > 200
38 | CN1C(=O)CC[C@]2(C)c3ccc(-c4cccc(Cl)c4Cl)cc3CC[C@@H]12 | 131 to 134
39 | O=C1CCC(c2ccc(Br)cc2)N1 (stereo not given) | 142
40 | O=C1N[C@H](Cc2ccc(F)cc2)[C@H](c2ccc(C(F)(F)F)cc2)O1 (racemic) | 160 to 161
41 | NC(=O)CC1CN(Cc2ccccc2)CCN1Cc1ccccc1 (stereo not given) | 114
42 | CCCCCCCCCC(=O)COS(=O)(=O)c1ccc(Cl)cc1 | 51 to 51.5
43 | O=C(N(C1CCNCC1)C1CC1)N1N=C2c3cc(F)ccc3OC[C@@H]2[C@@H]1c1ccccc1 (racemic) | 142
44 | CC(C)OC(=O)N1CCN(c2ccn3ncc(Br)c3n2)CC1 | 78 to 79
45 | O=c1ccn([C@@H]2C(F)=C(CCO)[C@@H](O)[C@H]2O)c(=O)[nH]1 | 166 to 167
46 | Cc1cc2oc(=O)c3c(c2cc1C)CCN(CC(C)N(C)C)C3 (stereo not given) | 105 to 107
47 | O=C1CCC(N2Cc3c(OCc4ccc(CN5CCN(c6ccccn6)CC5)cc4)cccc3C2=O)C(=O)N1 (stereo not given) | 165 to 167
48 | O=c1occ(CSc2ccc([N+](=O)[O-])cc2)o1 | 109 to 112
49 | COc1ccc(C(=O)N2c3ccccc3C(N3CCCCc4ccccc43)=CC2C)cc1OC (stereo not given) | 151 to 152
50 | Cc1cccc(NC(=O)Cn2c3c(c4c(Cl)c(Cl)ccc42)CCN(C(=O)OC(C)(C)C)CC3)c1C | 232 to 233

Row | SMILES | melting point [°C]
51 | CC(C)(C)c1cc(SC2(Sc3cc(C(C)(C)C)c(O)c(C(C)(C)C)c3)CCCCC2)cc(C(C)(C)C)c1O | 195 to 197
52 | CCCCCCCCCCCC(=O)N[C@@H](CC(C)C)C(=O)N[C@@H](C(C)C)[C@@H](O)c1c(-c2ccccc2)c1=O | 123 to 127
53 | S=C(Nc1ccccc1)c1ccccn1 | 45 to 46
54 | CN(C)c1ccc(/C=C/c2ccc(F)c(F)c2)cc1 | 159 to 160
55 | CCCc1nn(-c2ccc(C(F)(F)F)cn2)cc1CCCOc1cccc(CC(=O)O)c1 | 106 to 107
56 | COc1ccc(-c2nc3cc(OC)cc(-c4ccco4)c3o2)cc1 | 120 to 121
57 | Cn1cc(-c2cccc(N3Cc4cc(C(C)(C)C)ccc4C3=O)c2CO)nc(Nc2cnn(C3CC3)c2)c1=O | 218 to 219
58 | CNC(C(C)C)C(c1ccccc1)c1ccccc1 (stereo not given) | 46 to 48
59 | CC(C)(C)c1cc(C[C@@H]2SCNC2=O)cc(C(C)(C)C)c1O | 149 to 150
60 | CC(C#Cc1cccc(OCc2ccccc2)c1)N(O)C(N)=O (stereo not given) | 151 to 153
61 | O=C(O)C[C@@H](Cc1ccccc1)C(=O)OCc1ccccc1 | 48 to 52
62 | COC(=O)Nc1cccc2c1C(=O)c1c-2n[nH]c1-c1ccc(OC)cc1 | > 300
63 | Cc1cc(C)c2nc(CO)[nH]c2n1 | 244 to 246
64 | Cc1c(NC(=O)c2ccc(OC[C@@H]3CCCO3)cc2F)ccc2c1cc(CNCC1CCOCC1)n2C | 149
65 | CC(N1CCN(C=O)CC1)C(O)(Cn1cncn1)c1ccc(F)cc1F (stereo not given) | 118 to 120
66 | O=C1CCc2c(OCCCl)cccc21 | 56 to 58
67 | COc1ccc(Cn2nnnc2C(O)c2ccccc2C)cc1 (racemic) | 90 to 92
68 | CC(C)NC(=O)n1cc(Cl)c(-c2cc(Cl)cc(Cl)c2)n1 | 127
69 | O=C(c1ccco1)c1cnn2c(-c3ccccc3)ccnc12 | 185 to 187
70 | Cn1cnc(COc2nc3c(-c4ccccc4F)nncn3c2-c2ccccc2)n1 | 186
71 | O=C1Nc2ccc(Cl)cc2C1(O)c1ccccc1C(F)(F)F (stereo not given) | 205 to 208
72 | CCOC(=O)CC[C@H](NC(=O)c1ccc(CCc2cnc3nc(NC(=O)C(C)(C)C)nc(O)c3c2)cc1)C(=O)OCC | > 250
73 | CC(C)c1cn(C(C)(C)C(=O)N(C)C)nc1-c1ccccc1Cl | 86 to 88
74 | CCC(=NNC(=O)c1ccccc1)c1ccncc1 | 178
75 | Cc1ccc(-c2nc3sc4ccccc4n3c2CC(=O)O)s1 | 255 to 259

Row | SMILES | melting point [°C]
76 | CCc1cc2ccccn2c1C(=O)c1ccc(O)cc1 | 179 to 180
77 | CCc1nc2c(C)cc(C)nc2n1Cc1ccc2oc(-c3ccccc3NS(=O)(=O)C(F)(F)F)c(Br)c2c1 | 90 to 95
78 | Nc1nc2ccc(Cc3cccs3)cc2s1 | 188 to 191
79 | CC1=C(c2ccc(C#N)c3ccccc23)CCC1O (stereo not given) | 113 to 114
80 | CC1(C)SC(=S)N(Cc2cccs2)C(=O)C1NC(=O)c1ccc(Cl)cc1 (stereo not given) | 176 to 177
81 | COc1cc(Nc2c(C#N)cnc3cc(-c4cnc(CN5CCN(C)CC5)n4C)sc23)c(Cl)cc1Cl | 234 to 235
82 | CC(=O)Oc1c(C)cc(C)cc1CCc1cc(C)cc(C)c1OC(C)=O | 130 to 131
83 | COc1cccc(CNC(=O)c2nc3cccc(OCCN4CCC(C(=O)O)CC4)c3c(=O)[nH]2)c1 | 127 to 130
84 | Cc1ccc(I)c(C(O)(C(F)(F)F)C(F)(F)F)c1 | 38 to 39
85 | Clc1ccc(COc2ccc(Cl)cc2C(c2ccccc2)n2ccnc2)c(Cl)c1 (stereo not given) | 132 to 134
86 | CCCCCCCCCCCCCCCCCCNC(=O)OCC(CNS(=O)(=O)CCCI)NC(C)=O (stereo not given) | 101 to 102
87 | CCOC(=O)C1(C(=O)OCC)SCC(N(C)C)CS1 | 38 to 39
88 | COC(=O)Cn1c(C(=O)NC(N)=S)cc2cc(C)cc(C)c21 | 226 to 231
89 | COC(C)c1nc2c(N)nc3ccccc3c2n1CC(C)C (stereo not given) | 185 to 189
90 | Cc1c(SCCCN2CCN(Cc3ccc(Cl)s3)CC2)ccnc1CS(=O)c1nc2ccccc2[nH]1 (stereo not given) | 54 to 58
91 | COc1cccc(NC(=S)Nc2cscc2C)c1N | 148 to 153
92 | O=C(O)C12C3C4C5C(C1C53[N+](=O)[O-])C42[N+](=O)[O-] (stereo not given) | 187
93 | C=CCc1cc2c(c(CC=C)c1O)CCC(=O)N2CCCNC(=O)CCl | 152 to 154
94 | Cc1nnc(C=Cc2ccccc2OC[C@@H](O)CN2CCC(c3ccc4ccccc4c3)CC2)o1 | 105 to 106
95 | Oc1cccc2c1SCCC2 | 86 to 88
96 | CNC(=O)C1=CC(CF)(CF)Oc2ccc(Br)cc21 | 187 to 188
97 | O=C(O)c1ccccc1C(=O)Nc1cccc(-c2ccnc3c(C(=O)c4cccs4)cnn23)c1 | 215 to 216
98 | CCN(CC)Cc1cnc2cc(NC(=O)c3ccc(-c4ccc(F)cc4)cc3)c(C)cc2c1 | 145 to 148
99 | CC[C@H](C(=O)O)[C@H](N)C(=O)O | 239 to 241
100 | Cn1cc(OS(C)(=O)=O)c(=O)c2cccc(F)c21 | 207 to 209
